For assay [1], the target named is Human immunodeficiency virus type 1 reverse transcriptase (Human immunodeficiency virus 1, UniProt Q72547). Briefly: Inhibition of HIV1 reverse transcriptase.
The nature of assay [2]: Inhibition of HIV2 reverse transcriptase. Further details: species or system Human immunodeficiency virus 2.

Turning to `CC1(C)CC[C@]2(C(=O)O)CC=C3[C@]4(C)CC[C@H]5C(C)(C)[C@@H](O)C[C@@H](O)[C@]5(C)[C@H]4CC[C@@]3(C)[C@@H]2C1`, the IC50 – broadly, the concentration that gives 50% inhibition – in assay [1] turned out to be 4.9 µM; in assay [2], 53.1 µM.

In the case of `CC1(C)CC[C@]2(C(=O)O)CC=C3[C@]4(C)CC[C@H]5C(C)(C)[C@@H](OC(=O)c6ccc(O)cc6)C[C@@H](O)[C@]5(C)[C@H]4CC[C@@]3(C)[C@@H]2C1`, the results for the IC50 in assay [1] and in assay [2] were 3.7 µM and 59 µM, respectively.

The compound `CC[C@H]1CN2CCc3cc(OC)c(OC)cc3[C@@H]2C[C@@H]1CC1=NCCc2cc(OC)c(OC)cc21` had an IC50 in assay [1] of 14 µM.

Regarding `CC1(C)CC[C@]2(C(=O)O)CC=C3[C@]4(C)CC[C@H]5C(C)(C)[C@@H](O)CC[C@]5(C)[C@H]4CC[C@@]3(C)[C@@H]2C1` [ALEURITOLIC ACID], the IC50 is 24.9 µM in assay [1] and 78.7 µM in assay [2].

Take `CC1(C)CC[C@]2(C(=O)O)CC=C3[C@]4(C)CC[C@H]5C(C)(C)[C@@H](O)[C@H](O)C[C@]5(C)[C@H]4CC[C@@]3(C)[C@@H]2C1`: the IC50 was 3.4 µM in assay [1] and 56.7 µM in assay [2].

Regarding `COc1cc2c(ccc3c4cc(OC)c(OC)cc4c[n+](C)c23)cc1O` [FAGARONINE], in assay [1], half-maximal inhibition (IC50) was put at 13 µM.

As for `CC1(C)CC[C@]2(C(=O)O)CC=C3[C@]4(C)CC[C@H]5C(C)(C)[C@@H](OC(=O)c6ccc(O)cc6)[C@H](OC(=O)c6ccc(O)cc6)C[C@]5(C)[C@H]4CC[C@@]3(C)[C@@H]2C1`, the results for the IC50 in assay [1] and in assay [2] were 3.7 µM and 28.9 µM, respectively.

For the compound `CC(=O)O[C@H]1CC[C@]2(C)[C@H]3CC[C@]4(C)C(=CC[C@@]5(C(=O)O)CCC(C)(C)C[C@H]54)[C@]3(C)CC[C@H]2C1(C)C` [ACETYL ALEURITOLIC ACID], the IC50 is 136 µM in assay [1] and greater than 200 µM in assay [2].

For the origin of these results see ChEMBL document CHEMBL1149052, “Pentacyclic triterpenes derived from Maprounea africana are potent inhibitors of HIV-1 reverse transcriptase” (J Nat Prod, 1994).
